This experiment addresses Genome polyprotein (Dengue virus type 2 (strain 16681-PDK53)) (UniProt P29991). The experiment can be described thus: Dengue-2 NS5 guanylylation inhibitors, dose response, biochemical, secondary assay (AID 623863). Particulars: Dengue-2 NS5 guanylylation inhibition; for inhibition: at 50 µM (top of the series).

SMILES strings stand for the structures. Calls of active or inactive are those of the source. The rule behind the calls is not given here.

Chain of Genome polyprotein (Dengue virus type 2 (strain 16681-PDK53)) (P29991 whole entry, looked up): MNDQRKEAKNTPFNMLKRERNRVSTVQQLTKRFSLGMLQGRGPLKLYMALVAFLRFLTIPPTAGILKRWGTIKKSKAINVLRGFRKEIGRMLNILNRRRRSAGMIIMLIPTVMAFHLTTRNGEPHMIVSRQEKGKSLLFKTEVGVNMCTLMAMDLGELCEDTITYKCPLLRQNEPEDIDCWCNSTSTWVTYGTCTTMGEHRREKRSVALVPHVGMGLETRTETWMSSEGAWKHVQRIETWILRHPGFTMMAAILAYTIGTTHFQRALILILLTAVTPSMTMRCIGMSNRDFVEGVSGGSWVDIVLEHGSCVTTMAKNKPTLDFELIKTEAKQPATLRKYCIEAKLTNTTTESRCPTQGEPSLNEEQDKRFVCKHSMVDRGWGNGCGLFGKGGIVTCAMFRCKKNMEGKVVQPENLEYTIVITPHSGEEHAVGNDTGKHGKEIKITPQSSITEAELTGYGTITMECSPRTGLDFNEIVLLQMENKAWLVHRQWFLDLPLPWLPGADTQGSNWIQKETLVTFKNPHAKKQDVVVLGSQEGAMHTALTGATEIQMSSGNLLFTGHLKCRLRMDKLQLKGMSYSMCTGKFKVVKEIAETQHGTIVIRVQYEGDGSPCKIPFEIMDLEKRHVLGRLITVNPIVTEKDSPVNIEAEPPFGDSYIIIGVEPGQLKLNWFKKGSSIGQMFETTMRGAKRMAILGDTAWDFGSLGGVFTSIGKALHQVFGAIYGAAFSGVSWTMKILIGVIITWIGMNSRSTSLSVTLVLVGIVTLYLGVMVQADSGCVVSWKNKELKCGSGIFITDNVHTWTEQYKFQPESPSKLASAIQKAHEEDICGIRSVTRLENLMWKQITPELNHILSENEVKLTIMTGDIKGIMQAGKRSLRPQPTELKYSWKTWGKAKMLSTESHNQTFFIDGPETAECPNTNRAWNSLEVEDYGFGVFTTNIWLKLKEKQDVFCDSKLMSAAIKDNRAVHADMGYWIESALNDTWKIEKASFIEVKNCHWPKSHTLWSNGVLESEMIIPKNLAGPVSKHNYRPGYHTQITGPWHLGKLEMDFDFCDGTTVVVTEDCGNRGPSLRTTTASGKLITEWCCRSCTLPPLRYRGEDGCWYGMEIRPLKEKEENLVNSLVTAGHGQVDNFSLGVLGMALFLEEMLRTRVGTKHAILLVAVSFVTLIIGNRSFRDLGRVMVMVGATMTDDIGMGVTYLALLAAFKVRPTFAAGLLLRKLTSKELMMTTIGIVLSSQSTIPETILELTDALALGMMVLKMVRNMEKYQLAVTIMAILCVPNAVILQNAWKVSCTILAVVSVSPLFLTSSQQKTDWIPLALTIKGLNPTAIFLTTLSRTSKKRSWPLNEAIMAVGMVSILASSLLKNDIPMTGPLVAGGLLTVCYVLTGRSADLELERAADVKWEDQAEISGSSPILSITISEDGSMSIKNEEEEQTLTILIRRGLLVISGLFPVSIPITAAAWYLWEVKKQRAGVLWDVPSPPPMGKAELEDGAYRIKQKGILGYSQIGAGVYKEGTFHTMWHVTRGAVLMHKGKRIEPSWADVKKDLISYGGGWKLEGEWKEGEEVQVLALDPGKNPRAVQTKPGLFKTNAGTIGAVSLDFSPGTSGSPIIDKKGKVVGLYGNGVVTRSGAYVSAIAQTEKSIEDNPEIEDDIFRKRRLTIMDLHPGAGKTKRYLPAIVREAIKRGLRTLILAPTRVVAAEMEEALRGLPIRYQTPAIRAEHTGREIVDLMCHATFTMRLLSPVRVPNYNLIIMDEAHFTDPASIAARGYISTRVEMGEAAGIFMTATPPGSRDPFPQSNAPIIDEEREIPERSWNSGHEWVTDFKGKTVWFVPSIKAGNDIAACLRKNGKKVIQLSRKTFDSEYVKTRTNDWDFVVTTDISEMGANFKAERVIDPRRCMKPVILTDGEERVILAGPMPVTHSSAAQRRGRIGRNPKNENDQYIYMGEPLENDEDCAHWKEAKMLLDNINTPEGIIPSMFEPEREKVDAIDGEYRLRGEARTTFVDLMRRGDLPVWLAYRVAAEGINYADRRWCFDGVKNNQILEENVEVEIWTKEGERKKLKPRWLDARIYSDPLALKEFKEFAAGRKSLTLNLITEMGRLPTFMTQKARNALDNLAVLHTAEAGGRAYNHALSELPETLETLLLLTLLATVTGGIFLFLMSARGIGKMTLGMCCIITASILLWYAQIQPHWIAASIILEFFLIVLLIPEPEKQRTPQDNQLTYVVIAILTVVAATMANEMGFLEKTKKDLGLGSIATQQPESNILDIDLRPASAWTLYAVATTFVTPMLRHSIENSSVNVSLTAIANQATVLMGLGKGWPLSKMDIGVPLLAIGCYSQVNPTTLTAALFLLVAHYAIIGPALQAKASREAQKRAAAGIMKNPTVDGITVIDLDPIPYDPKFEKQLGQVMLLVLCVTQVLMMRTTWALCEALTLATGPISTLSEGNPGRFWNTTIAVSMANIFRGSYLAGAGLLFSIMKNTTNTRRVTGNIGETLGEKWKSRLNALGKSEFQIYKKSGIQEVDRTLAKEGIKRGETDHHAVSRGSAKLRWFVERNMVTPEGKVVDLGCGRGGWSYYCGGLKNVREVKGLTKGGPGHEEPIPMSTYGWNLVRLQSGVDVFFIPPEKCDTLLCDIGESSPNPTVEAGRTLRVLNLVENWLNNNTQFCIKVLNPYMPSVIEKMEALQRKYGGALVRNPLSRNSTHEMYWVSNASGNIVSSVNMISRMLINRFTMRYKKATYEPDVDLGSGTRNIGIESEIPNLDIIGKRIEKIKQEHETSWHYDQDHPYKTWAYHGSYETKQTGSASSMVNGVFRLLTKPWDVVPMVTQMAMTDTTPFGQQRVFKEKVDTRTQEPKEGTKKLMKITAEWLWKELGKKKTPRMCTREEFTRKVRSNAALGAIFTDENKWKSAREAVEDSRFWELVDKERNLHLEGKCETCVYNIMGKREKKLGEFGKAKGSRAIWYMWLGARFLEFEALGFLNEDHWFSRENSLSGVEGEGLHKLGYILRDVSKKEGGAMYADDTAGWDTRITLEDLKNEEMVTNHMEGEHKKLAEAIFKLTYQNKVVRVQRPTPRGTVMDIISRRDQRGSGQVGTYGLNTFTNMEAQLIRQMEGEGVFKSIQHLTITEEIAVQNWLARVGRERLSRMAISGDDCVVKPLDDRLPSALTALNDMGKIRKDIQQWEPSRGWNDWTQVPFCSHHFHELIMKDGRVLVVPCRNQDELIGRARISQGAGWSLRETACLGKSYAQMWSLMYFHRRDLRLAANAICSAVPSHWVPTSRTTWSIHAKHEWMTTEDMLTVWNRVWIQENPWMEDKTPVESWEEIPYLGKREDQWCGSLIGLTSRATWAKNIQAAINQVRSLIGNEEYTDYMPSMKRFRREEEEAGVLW

Consider `Cc1cc(C)c(S(=O)(=O)Nc2cc(SCC(=O)O)c(O)c3ccccc23)c(C)c1`, for which the inhibition result is “inactive”.

Regarding `O=[N+]([O-])c1cccc(S(=O)(=O)Nc2cc(SCc3ccccc3)c(O)c3ccccc23)c1`, the half-inhibitory concentration (IC50) was 3.03 µM.

On to `O=[N+]([O-])c1cccc(S(=O)(=O)Nc2cc(Sc3nc4ccccc4s3)c(O)c3ccccc23)c1`, for which the IC50 was 18.3 µM.

In the case of `O=S(=O)(Nc1cc(Sc2ncn[nH]2)c(O)c2ccccc12)c1ccc(F)cc1`, the inhibition result was “inactive”.

As to `O=C(O)CSc1cc(NS(=O)(=O)c2cccc([N+](=O)[O-])c2)c2ccccc2c1O`, the IC50 was 3.33 µM.

On to `Cc1ccc(S(=O)(=O)Nc2cc(Sc3nc(C)cc(C)n3)c(O)c3ccccc23)cc1`, for which the IC50 is 46 µM.

On to `Cc1ccc(S(=O)(=O)Nc2cc(SCC(=O)O)c(O)c3ccccc23)cc1`, for which the inhibition result was “inactive”.

On to `Cn1c(=O)c2[nH]c(-c3ccc(Cl)cc3)c(O)c2n(C)c1=O`, for which the half-maximal inhibitory concentration (IC50) was 7.51 µM.

As for `O=S(=O)(Nc1cc(SCc2ccccc2)c(O)c2ccccc12)c1ccc(Cl)cc1`, the 50% inhibitory concentration (IC50) is 4.23 µM.

In the case of `O=C(O)CSc1cc(NS(=O)(=O)c2ccc(Br)cc2)c2ccccc2c1O`, the concentration for half-maximal inhibition (IC50) was 2.37 µM.

For the compound `O=C(O)CSc1cc(NS(=O)(=O)c2ccc(Cl)cc2)c2ccccc2c1O`, the IC50 is 7.89 µM.

Turning to `Cc1cc(F)ccc1S(=O)(=O)Nc1cc(SCC(=O)O)c(O)c2ccccc12`, the inhibition entry is “inactive”.

For the compound `O=S(=O)(Nc1cc(Sc2ccccc2)c(O)c2ccccc12)c1ccc(F)cc1`, the half-maximal inhibitory concentration (IC50) is 47.9 µM.

For `O=C(O)CSc1cc(NS(=O)(=O)c2ccc(F)cc2)c2ccccc2c1O`, the inhibition result is “inactive”.

The values above are taken from PubChem BioAssay AID623863 (Southern Research Specialized Biocontainment Screening …, 2012).
